This assay addresses T1, FGFR3 protein (Homo sapiens, UniProt P22607).
T1 construct: purchased Reaction Biology 1068
Put plainly: FGFR3 enzyme assay (KinEASE-TK HTRF kinase assay). To be noted: 0.25 nM enzyme, ATP at Km, 15 min pre-incubation on ice, 30 min at 30° C. It counts as biochemical. Here is the method:
FGFR3 and FGFR1 Enzyme Assay
Enzyme activity was monitored using the KinEASE™-TK Assay Kit (Cisflio, Cat. No. 62TK0PEC) according to the manufacturer's instructions. All assays were performed at the respective KmATP for each kinase in KinEASE™ Kinase Buffer.
Titration of compounds were performed in a half-log manner in 100% dimethyl sulfoxide (DMSO) starting at 1 uM. Prior to the initiation of the reaction by adenosine triphosphate (ATP), FGFR1 protein and compounds were pre-incubated for 15 minutes at room temperature, and FGFR3 protein and compounds were pre-incubated on ice for 15 minutes. Reactions proceeded for 30 min at 30° C. Plates were quenched by the addition of the Anti-TK cryptate antibody/Streptavidin-XL665 mixture.
Ratios were converted to a percent of control (POC) using a ratiometric emission factor. One hundred POC was determined using no test compound, and 0 POC was determined in the presence of 1 uM of an appropriate control inhibitor.
T1 sequence (P22607 23-806): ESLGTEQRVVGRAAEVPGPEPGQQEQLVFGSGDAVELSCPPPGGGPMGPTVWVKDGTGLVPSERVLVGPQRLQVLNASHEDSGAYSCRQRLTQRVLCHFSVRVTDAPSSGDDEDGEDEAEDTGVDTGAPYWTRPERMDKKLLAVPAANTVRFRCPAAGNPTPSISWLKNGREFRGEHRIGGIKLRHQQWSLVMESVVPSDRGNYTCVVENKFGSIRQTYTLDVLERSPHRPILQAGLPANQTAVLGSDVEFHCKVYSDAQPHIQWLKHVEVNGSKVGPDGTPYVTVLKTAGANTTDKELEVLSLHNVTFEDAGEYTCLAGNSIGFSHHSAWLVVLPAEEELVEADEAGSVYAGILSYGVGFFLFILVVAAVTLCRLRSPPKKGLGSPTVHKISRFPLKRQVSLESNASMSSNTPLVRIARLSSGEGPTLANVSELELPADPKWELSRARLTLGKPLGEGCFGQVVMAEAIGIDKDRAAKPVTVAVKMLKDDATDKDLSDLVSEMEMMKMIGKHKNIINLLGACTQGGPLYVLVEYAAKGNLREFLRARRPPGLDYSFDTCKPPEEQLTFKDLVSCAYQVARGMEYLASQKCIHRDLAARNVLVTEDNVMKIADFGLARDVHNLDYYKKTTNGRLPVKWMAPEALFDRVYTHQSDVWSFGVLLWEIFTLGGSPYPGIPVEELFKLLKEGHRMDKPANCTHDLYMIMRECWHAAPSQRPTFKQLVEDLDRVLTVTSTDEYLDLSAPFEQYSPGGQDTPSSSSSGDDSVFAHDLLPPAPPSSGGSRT
On to `Cc1c(-c2cc(O[C@H](C)c3ccccn3)c3c(C#N)cnn3c2)nnn1C1CCN(C#N)CC1` [Example 169, 4-(4-[3-Cyano-4-[(1R)-1-(pyridin-2-yl)ethoxy]pyrazolo[1,5-a]pyridin-6-yl]-5-methyl-1,2,3-triazol-1-yl)piperidine-1-carbonitrile], for which the IC50 is less than 0.05 µM.
`COCC(Oc1cc(-c2nnn(C3CCN(C#N)CC3)c2C)cc2ncc(C#N)n12)c1ccc(F)cn1` (single isomer, unassigned; isomer 1) [Example 49, 7-[1-(1-Cyano-4-piperidyl)-5-methyl-triazol-4-yl]-5-[1-(5-fluoro-2-pyridyl)-2-methoxy-ethoxy]imidazo[1,2-a]pyridine-3-carbonitrile, Isomer 1] yielded an IC50 of less than 0.05 µM.
`Cc1c(-c2cc(O[C@H](C)c3ccccn3)n3c(Cl)cnc3c2)nnn1C1CN(C2CCN(C#N)CC2)C1` [Example 233, 4-[3-[4-[3-Chloro-5-[(1R)-1-(2-pyridyl)ethoxy]imidazo[1,2-a]pyridin-7-yl]-5-methyl-triazol-1-yl]azetidin-1-yl]piperidine-1-carbonitrile] returned an IC50 of less than 0.1 µM.
Under `Cc1c(-c2cc(OC(CO)c3ccc(F)cn3)n3c(C#N)cnc3c2)nnn1C1CCN(C#N)CC1` (single isomer, unassigned; isomer 1) [Example 63, 7-[1-(1-Cyano-4-piperidyl)-5-methyl-triazol-4-yl]-5-[1-(5-fluoro-2-pyridyl)-2-hydroxy-ethoxy]imidazo[1,2-a]pyridine-3-carbonitrile, Isomer 1] stands less than 0.05 µM; under `Cc1c(-c2cc(O[C@H](C)C3CCC3)c3c(C#N)cnn3c2)cnn1C1CCN(C#N)CC1` [Example 195, 4-(4-[3-cyano-4-[(1R)-1-cyclobutylethoxy]pyrazolo[1,5-a]pyridin-6-yl]-5-methylpyrazol-1-yl)piperidine-1-carbonitrile], less than 0.05 µM; under `Cc1c(-c2cc(O[C@H](C)c3ccnn3C)c3c(C#N)cnn3c2)cnn1C1CCN(C#N)CC1` [Example 189, 4-(4-[3-Cyano-4-[(1R)-1-(2-methylpyrazol-3-yl)ethoxy]pyrazolo [1,5-a]pyridin-6-yl]-5-methylpyrazol-1-yl)piperidine-1-carbonitrile], less than 0.05 µM.
Then `CCC(Oc1cc(-c2nnn(C3CCN(C#N)CC3)c2C)cc2ncc(C#N)n12)c1ccc(F)cn1` (single isomer, unassigned; isomer 1) [Example 51, 7-[1-(1-Cyano-4-piperidyl)-5-methyl-triazol-4-yl]-5-[1-(5-fluoro-2-pyridyl)propoxy]imidazo[1,2-a]pyridine-3-carbonitrile, Isomer 1], with less than 0.05 µM; and `Cc1c(-c2cc(OCC(C)(O)c3ccc(F)cn3)c3c(Cl)cnn3c2)nnn1C1CCN(C#N)CC1` (single isomer, unassigned) [Example 156, 4-[4-[3-Chloro-4-[2-(5-fluoro-2-pyridyl)-2-hydroxy-propoxy]pyrazolo[1,5-a]pyridin-6-yl]-5-methyl-triazol-1-yl]piperidine-1-carbonitrile], with less than 0.05 µM; and `Cc1c(-c2cc(OC(CO)c3ccc(F)cn3)n3c(Cl)cnc3c2)nnn1C1CCN(C#N)CC1` (single isomer, unassigned; isomer 2) [Example 47, 4-[4-[3-Chloro-5-[1-(5-fluoro-2-pyridyl)-2-hydroxy-ethoxy]imidazo[1,2-a]pyidine-7-yl]-5-methyl-triazol-1-yl]piperidine-1-carbonitrile, Isomer 2], with less than 0.05 µM.
The compound `Cc1c(-c2cc(OC(C)c3cc(C(F)(F)F)cnc3N3CCOCC3)c3c(C#N)cnn3c2)nnn1C1CCN(C#N)CC1` (stereo not shown) [Example 13, 6-[1-(1-Cyano-4-piperidyl)-5-methyl-triazol-4-yl]-4-[1-[2-morpholino-5-(trifluoromethyl)-3-pyridyl]ethoxy]pyrazolo [1,5-a]pyridine-3-carbonitrile] returned an IC50 of less than 0.1 µM.

By IC50 is commonly meant the midpoint of a concentration-inhibition curve. Read a low IC50 as inhibition by little substance.

For the origin of these results see US12209086B2, “FGFR3 inhibitor compounds” (ELI LILLY AND COMPANY, priority 2021, dated 2025).
